Consider five molecules from patent US5589486A, “N-hydroxyalkyl-substituted 1,2,3,6-tetrahydro-pyridine and piperidine derivatives” (Richter Gedeon Vegyeszeti Gyar Rt., priority 1991, dated 1996).

Like-named read-outs stand apart in the source and are kept apart here. Bounds are passed on as bounds.

Data set [1] in a line: Acute toxicity study in mice. More on the design: species or system mice (OF-1, either sex). The conditions noted are these: mouse, in vivo, po, maximal dose 1000 mg/kg. The procedure:
OF-1 mice of either sex weighing 19-21 g were used. The test compound was administered through a catheter inserted into the stomach. A series of solutions was prepared, the concentrations were chosen to give a constant dosage volume of 0.1 ml/10 g. The observation time after the treatment was 72 hours. The LD50 value was calculated according to Litchfield and Wilcoxon from six dose responses (maximal dose 1000 mg/kg p.o., n=10).

In data set [2] the test system is cytotoxic hypoxia in mice. Put plainly: Cytotoxic hypoxia test (potassium cyanide i.v., survival time). In kind it is in vivo, mice (male CFLP). The conditions noted are these: in words.
In data set [3] the test system is hypobaric hypoxia in SH rats. Put plainly: Hypobaric hypoxia test (170 mmHg, survival time). In kind it is in vivo, spontaneously hypertensive (SH) male rats. To be noted: in words. The procedure: (§1) Male CFLP mice (from the Hungarian stock LATI) weighing 24-26 g each and spontaneously hypertensive (SH) male rats weighing 160-180 g each, respectively were used in these investigations. The compounds to be tested were orally administered in a volume of 10 ml/kg one hour prior to starting the experiment.
After a 16-hour starving and 1-hour pretreatment period, the animals were placed in a desiccator of 6 liters volume, where the pressure was decreased to 170 mmHg within 20 seconds. The survival time was registered from this time point up to the last respiratory movement of the animals. Animals having a survival time longer by 30% than the average survival time of the control group were considered to be protected. The ED50 values were calculated from the percentage of the animals protected by using probit analysis.
Various forms of hypoxia were used for investigating the compounds. The functional disorganization and destruction of cells and death, respectively in otherwise healthy mice are caused by a decrease in the oxygen-saturation of haemoglobin in the hypobaric hypoxia and the inhibition of the mitochondrial respiratory enzyme in the cytotoxic hypoxia. Spontaneously hypertensive (SH) rats are more sensitive against hypoxic conditions than normotensive animals; similarly, patients suffering from hypertension have a less chance of survival after hypoxic injuries.

Data set [4] concerns hypoxia. Put plainly: Antihypoxic effect, cytotoxic and hypobaric hypoxia tests taken together. The class given is in vivo, mice; spontaneously hypertensive (SH) rats. The conditions noted are these: comparison of effects between tests, in words. The procedure: as §1
After a 1-hour pretreatment, the animals were intravenously injected with 5 mg/kg of potassium cyanide. Survival time was measured as an interval lasting from the administration of potassium cyanide to the last respiratory movement. In the groups consisting of 10 animals each treated with the compounds, the animals having a survival time longer by 30% than the average survival time of the placebo-treated group were considered to be protected. The ED50 values (i.e. the doses being effective in 50% of the animals) were calculated from the percentage of the surviving animals by using probit analysis.
After a 16-hour starving and 1-hour pretreatment period, the animals were placed in a desiccator of 6 liters volume, where the pressure was decreased to 170 mmHg within 20 seconds. The survival time was registered from this time point up to the last respiratory movement of the animals. […] The ED50 values were calculated from the percentage of the animals protected by using probit analysis. […]

Where [5] appears, read: 72 h observation, Litchfield and Wilcoxon, read-out: LD50.

With `OC(CCN1CCC(c2ccccc2)CC1)c1ccc(Cc2ccc(Cl)cc2)cc1` (stereo not shown) [B, 1-[4-(4-chlorobenzyl)phenyl]-3-(4-phenyl-1-piperidyl)propanol], the LD50 – broadly, the dose expected to kill half of the subjects tested – at 72 h in data set [1] was 697 mg/kg.

Consider `CC[C@]12CCCN3CCc4c(n(c5ccccc45)[C@@](O)(C(=O)OC)C1)[C@@H]32` [Vincamine, (+)-14β-hydroxy-14α-methoxycarbonyl-14,15-dihydroeburnamenine], for which, in data set [2], the “antihypoxic effect in cytotoxic hypoxia” value is reported as “most pronounced in cytotoxic hypoxia”. Also, in data set [3], the “action in hypobaric hypoxia” value is reported as “prominent tolerance-enhancing action in hypobaric hypoxia”.

For `NC(=O)CN1CCCC1=O` [Piracetam, 2-oxo-1-pyrrolidinylacetic acid amide, reference compound], in data set [4], the “antihypoxic effect in the various tests of hypoxia” value is on record as “exerts its effect in the same two tests”.

For the molecule `OC(CN1CC=C(c2ccccc2)CC1)c1ccc(Cc2ccc(Cl)cc2)cc1` (stereo not shown) [A, 1-[4-(4-Chlorobenzyl)phenyl]-2-(4-phenyl-1,2,3,6-tetrahydro-1-pyridyl)ethanol], the LD50 at 72 h in data set [1] (setting [5]) is > 1000 mg/kg. Besides, the “antihypoxic effect in the various tests of hypoxia” value in data set [4] is “its effects are the same in the various tests of hypoxia”.

As for `OC(CCN1CC=C(c2ccc(Cl)cc2)CC1)c1ccc(Cl)cc1Cl` (stereo not shown) [E, 3-[4-(4-Chlorophenyl)-1,2,3,6-tetrahydro-1-pyridyl]-1-(2,4-dichlorophenyl)propanol], in data set [1] (setting [5]), the median lethal dose (LD50) at 72 h is > 1000 mg/kg.
